Test results as given in patent publication US4231946A, “14,15-Methylene derivatives of the estrane series and methods for preparing same” (VEB Jenapharm, priority 1978, dated 1980).
Like-named read-outs stand apart in the source and are kept apart here.

What was measured:
inseminated rats = test: Antinidation / Nidation Inhibition Test in inseminated rats treated on the 1st day of gestation; format: in vivo, rat; settings: for ED50 / ED5 / ED95: Rattus norvegicus, po, STS 593 from trial No. 2; for Female rats pregnant of n, normal / Female rats pregnant of n, total / GHE1 / GHE2 / IHE1 / IHE2 / Implantations per female (-x), normal / Implantations per female (-x), total: mestranol 0.2 mg/kg p.o.
Excerpt: The favorable biological properties of the named compounds of the process according to the invention are to be further illustrated and described in the example of 3-methoxy-14β-15β-methylene-estra-1,3,5(10)-triene-17β-ol (test designation STS 593).
(§1) Gestation and nidation inhibition expressed in % were used as parameters for antifertility effects. GHE1 (gestation inhibitory effect) and IHE1 (nidation inhibitory effect) were related to the inhibition of the total of gestations or nidations, GHE2 and IHE2 were related to the inhibition of normal gestations or nidations within each group. […] GHE1, GHE2, IHE1 and IHE2 were calculated using the following formulae: [formula] n=number of females inseminated in each group v=test group
k=control group (sesame oil)
x=number of all gestations (GHE1) and of normal gestations (GHE2) p. group, respectively
(§2) f=average number (x) of all implantations (IHE1) and of normal implantations (IHE2) p. female inseminated within a group, respectively.
The comparison of the relative incidence of gestations was performed by the Ryan test, the comparison of the number of implantations by the Dunn test.
(§3) For GHE1 and GHE2 the ED (effective doses) for the HE (inhibitory effect) 0%, 50%, and 95% as far as possible were determined by means of the probit analysis. The ED50 for IHE1 and IHE2 were determined graphically.

[1] = test system: mice (uterine fresh weight); test: Uterine activity in mice (dose for doubling uterine fresh weight); format: in vivo, mouse; settings: for Total dose for doubling uterine fresh weight: p.o.; for Uterine response / uterine activity (in words): Table 6
Excerpt: (§4) Uterine and contraceptive activities produced by selected
(§5) 14,15-methylene-17-ol-estratrienes in mice

[2] = test system: infantile female Wistar rats; test: Uterine activity in infantile female Wistar rats; format: in vivo, Wistar rat; settings: n=10
Excerpt: STS 593 was weaker than ethynylestradiol by a factor of 9 in its estrogenic properties as shown by the Allen-Doisy test in ovariectomized mice. The compound was only 7% as active as the standard mestranol in producing a uterine response in infantile rats (Table 3), whereas the antiestrogenic properties exceeded those of clomiphene citrate by a factor of 1.4.
Comparison of uterine activity in infantile female
Wistar rats produced by STS 593 and mestranol

rats (testicular mass) = test: Antigonadotrophic activity (testicular mass) in rats; format: in vivo, rat; settings: Rattus norvegicus, 120 h; rats; read-out: Effective dose for the HE50, antigonadotrophic
Procedure: The effective dose for the HE50 was close to 0.65 mg/kg of body-wt./5 d, while mestranol has the same effect at a dose as low as 0.15 mg/kg of body-wt./5 d.

[3] = General statement on antifertility effects and separation from uterine, estrogenic and antigonadotrophic activities; format: in vivo
mice = test: Contraceptive activity in mice, single application on 1st day of gestation; format: in vivo, mouse; settings: for Contraceptive activities related to IHE1 (ranking in words): among the other compounds of Table 6; for THE, % after single application of 10 mg/kg of body-wt. on the 1st day of gestation p.o.: mice, 10 mg/kg p.o.
Procedure: as §1, §2, §3, §4, §5

infantile rabbit uteri = test: McPhail test, progestagenic and antiprogestagenic activities in infantile rabbit uteri; format: in vivo; settings: progesterone 4 mg/animal s.c. alone, total dose over 4 days; n=6
Excerpt: The HE of 97.3% is significant (Table 5).
Progestagenic and antiprogestagenic activities of STS 593
in infantile rabbit uteri as shown by the McPhail test

[4] = determined graphically, read-out: ED 50 for IHE1
[5] = determined graphically, read-out: ED 50 for IHE2
[6] = probit analysis, read-out: ED 50 for GHE1
[7] = probit analysis, read-out: ED 50 for GHE2
[8] = probit analysis, read-out: ED 05 for GHE1
[9] = probit analysis, read-out: ED 05 for GHE2
[10] = probit analysis, read-out: ED 95 for GHE1
[11] = probit analysis, read-out: ED 95 for GHE2

C#C[C@]1(O)CC[C@H]2[C@@H]3CCc4cc(O)ccc4[C@H]3CC[C@@]21C [Ethynylestradiol, reference compound]
ED50 (inseminated rats; [4]): 0.37 mg/kg
ED50 (inseminated rats; [5]): < 0.21 mg/kg
ED50 (inseminated rats; [6]): ≤ 0.45 mg/kg
ED50 (inseminated rats; [7]): < 0.3 mg/kg

COc1ccc2c(c1)CC[C@@H]1[C@@H]2CC[C@]2(C)C(OC(=O)Nc3ccccc3)CC3C[C@@]312 (stereo partly drawn) [STS 594, 17phenylaminocarbnoyloxy-14β,15methylene-estra-1,3,5(10)-triene-3-mehylether]
Total dose for doubling uterine fresh weight [1]: 100 μg/animal

C#C[C@]1(O)CC[C@H]2[C@@H]3CCc4cc(OC)ccc4[C@H]3CC[C@@]21C [Mestranol, reference compound]
Female rats pregnant of n, normal (inseminated rats; 1st trial 1975, n=12): 1
Female rats pregnant of n, total (inseminated rats; 1st trial 1975, n=12): 11
GHE1 (inseminated rats; 1st trial 1975, n=12): 8.3%
GHE2 (inseminated rats; 1st trial 1975, n=12): 91.7%
IHE1 (inseminated rats; 1st trial 1975, n=12): 45.3%
IHE2 (inseminated rats; 1st trial 1975, n=12): 98.7%
Implantations per female (-x), normal (inseminated rats; 1st trial 1975, n=12): 0.2
Implantations per female (-x), total (inseminated rats; 1st trial 1975, n=12): 6.8
Female rats pregnant of n, normal (inseminated rats; 2nd trial 1978, n=10): 0
Female rats pregnant of n, total (inseminated rats; 2nd trial 1978, n=10): 6
GHE1 (inseminated rats; 2nd trial 1978, n=10): 40%
GHE2 (inseminated rats; 2nd trial 1978, n=10): 100%
IHE1 (inseminated rats; 2nd trial 1978, n=10): 70.8%
IHE2 (inseminated rats; 2nd trial 1978, n=10): 100%
Implantations per female (-x), normal (inseminated rats; 2nd trial 1978, n=10): 0
Implantations per female (-x), total (inseminated rats; 2nd trial 1978, n=10): 3.8
ED50 (inseminated rats; [4]): 0.17 mg/kg
ED50 (inseminated rats; [5]): 0.15 mg/kg
ED5 (inseminated rats; [8]): 0.097 mg/kg
ED5 (inseminated rats; [9]): 0.065 mg/kg
ED50 (inseminated rats; [6]): 0.34 mg/kg
ED50 (inseminated rats; [7]): 0.163 mg/kg
ED95 (inseminated rats; [10]): 1.11 mg/kg
ED95 (inseminated rats; [11]): 0.387 mg/kg
Uterine weight (-x) ([2]; mestranol total dose 0.6 per animal over 3 days p.o.): 70.11 mg
Uterine weight (-x) ([2]; mestranol total dose 6.0 per animal over 3 days p.o.): 95.45 mg
ED50 (rats (testicular mass)): 0.15 mg/kg

COc1ccc2c(c1)CC[C@@H]1[C@@H]2CC[C@@]2(C)[C@@]13C[C@@H]3C[C@]2(C)O [STS 681, 3-methoxy-17α-methyl-14β,15β-methylene-estra-1,3,5(10)-triene-17β-ol]
Antifertility effects (in words) ([3]; in vivo): strong antifertility effects
Separation of desirable contraceptive and undesirable uterine and antigonadotrophic activities ([3]; in vivo): very favorable separation
Uterine response / uterine activity (in words) [1]: distinctly weaker uterine activities
Total dose for doubling uterine fresh weight [1]: 0.56 μg/animal
Contraceptive activities related to IHE1 (ranking in words) (mice): strongest contraceptive activities
THE, % after single application of 10 mg/kg of body-wt. on the 1st day of gestation p.o. (mice): 81.7%

CC(=O)[C@H]1CC[C@H]2[C@@H]3CCC4=CC(=O)CC[C@]4(C)[C@H]3CC[C@]12C [Progesterone, reference compound]
McPhail index (-x) (infantile rabbit uteri): 3.0

COc1ccc2c(c1)CC[C@@H]1[C@@H]2CC[C@]2(C)[C@H](O)C[C@H]3C[C@@]312 [STS 592, 3-methoxy-14β-15β-methylene-estra-1,3,5(10)-triene-17α-ol]
Separation of desirable contraceptive and undesirable estrogenic effects ([3]; mice, among the compounds of Table 6): most favorable separation
Uterine response / uterine activity (in words) [1]: distinctly weaker uterine activities
Total dose for doubling uterine fresh weight [1]: 7.0 μg/animal
THE, % after single application of 10 mg/kg of body-wt. on the 1st day of gestation p.o. (mice): 35.0%

COc1ccc2c(c1)CC[C@@H]1[C@@H]2CC[C@]2(C)C(OC(=O)Nc3ccccc3)CC3C[C@@]312 (stereo partly drawn) [STS 595, 17phenylaminocarbonyloxy-14β,15methylene-estra-1,3,5(10)-triene-3-mehylether]
Total dose for doubling uterine fresh weight [1]: 100 μg/animal

COc1ccc2c(c1)CC[C@@H]1[C@@H]2CC[C@]2(C)[C@H](O)C[C@@H]3C[C@]312 [STS 652, 3-methoxy-14α,15α-methylene-estra-1,3,5(10)-triene-17α-ol]
Separation of desirable contraceptive and undesirable uterine and antigonadotrophic activities ([3]; in vivo): very favorable separation
Uterine response / uterine activity (in words) [1]: distinctly weaker uterine activities
Total dose for doubling uterine fresh weight [1]: 3.0 μg/animal
THE, % after single application of 10 mg/kg of body-wt. on the 1st day of gestation p.o. (mice): 60.0%

COc1ccc2c(c1)CC[C@@H]1[C@@H]2CC[C@]2(C)[C@@H](O)C[C@@H]3C[C@]312 [STS 651, 3-methoxy-14α,15α-methylene-estra-1,3,5(10)-triene-17β-ol]
ED50 (inseminated rats; [4]): 0.107 mg/kg
ED50 (inseminated rats; [5]): 0.096 mg/kg
ED5 (inseminated rats; [8]): 0.059 mg/kg
ED5 (inseminated rats; [9]): 0.043 mg/kg
ED50 (inseminated rats; [6]): 0.183 mg/kg
ED50 (inseminated rats; [7]): 0.11 mg/kg
ED95 (inseminated rats; [10]): 0.583 mg/kg
ED95 (inseminated rats; [11]): 0.265 mg/kg
Uterine response / uterine activity (in words) [1]: strongest uterine response
Total dose for doubling uterine fresh weight [1]: 0.2 μg/animal
Contraceptive activities related to IHE1 (ranking in words) (mice): strongest contraceptive activities
THE, % after single application of 10 mg/kg of body-wt. on the 1st day of gestation p.o. (mice): 84.4%
